Measured values taken from patent US8022086B2, “Therapeutic agent for glomerular disease” (Kowa Co., Ltd., priority 2004, dated 2011).

Tested on: rat model of glomerular basement membrane (GBM) nephritis
Experiment: Pharmacological test employing rat model of glomerular basement membrane (GBM) nephritis: urinary total protein excretion
Type: in vivo, Wistar male rats
Conditions: anti-GBM antibody-induced nephritis rats, repeated oral administration for two weeks; for 18-hour urinary total protein excretion: pitavastatin calcium 30 mg/kg, candesartan cilexetil 3 mg/kg, control group 316, N=7; for 18-hour urinary total protein excretion compared with control group (significance): versus no drug administration group
Method: Wistar male rats (six weeks old, purchased from Japan Laboratory Animals, Inc.) were quarantined and acclimatized for four days, and employed for the test. Firstly, a rat GBM rabbit IgG antibody was prepared, and then an antibody solution was adjusted with saline upon use to be 31 mg IgG antibody/mL saline. Thereafter, each of the rats was fixated under unanesthetized conditions, and the antibody solution was intravenously administered (1 mL/kg) through the tail vein, whereby progressive renal disorder was induced. The resultant rats were divided into four groups (N=7 for each), and immediately thereafter, the below-described test was carried out. […] In the drug administration groups, the respective drugs were repeatedly orally administered for two weeks. In each of the groups, after completion of two-week drug administration, urine was collected from each rat for 18 hours in a metabolic cage (Product of […] Co., Ltd.), and urinary total protein excretion was measured.

| SMILES | 18-hour urinary total protein excretion | 18-hour urinary total protein excretion compared with control group (significance) |
| --- | --- | --- |
| CCOc1nc2cccc(C(=O)OC(C)OC(=O)OC3CCCCC3)c2n1Cc1ccc(-c2ccccc2-c2nnn[nH]2)cc1 (stereo not shown) [candesartan cilexetil, 1-(cyclohexyloxycarbonyloxy)ethyl 2-ethoxy-1-[[2′-(1H-tetrazol-5-yl)biphenyl-4-yl]methyl]-1H-benzimidazole-7-carboxylate] | 92 mg/18 h/kg | lower, but not significantly lower |
| O=C(O)C[C@H](O)C[C@H](O)/C=C/c1c(C2CC2)nc2ccccc2c1-c1ccc(F)cc1 [pitavastatin calcium, (3R, 5S, 6B)-7-[2-cyclopropyl-4-(4-fluorophenyl)-3-quinolyl]-3,5-dihydroxy-6-heptenoic acid] | 138 mg/18 h/kg | lower, but not significantly lower |
